According to patent US10813980B2, “Methods for treating osteoarthritis by administering linked variants of growth hormone and somatostatin” (REGULAXIS, priority 2016, dated 2020):
“And” between values parts separate entries of the source, which are not always exact repeats. Identical values can stand only once. No end group written: not given here.

Assays:
[1] = system: male Duncan-Hartley guinea pigs; assay: In vivo efficiency in guinea pig spontaneous knee osteoarthritis, intra-articular injection, histological analysis; conditions: for cartilage thickness / sum of the scores representing the degradation of several structures in the joint (total scoring of degradation parameters): five month after intra-articular injection of 50 μl per knee; for cartilage thickness: * p<0.05; for sum of the scores representing the degradation of several structures in the joint (total scoring of degradation parameters): peptide 10^−7 M, vs control and hyaluronic acid alone
Experimental: Peptide of the invention (corresponding to SEQ ID NO: 4) was dissolved at 2.5 mg/ml in water for injection (CDM Lavoisier) to make a stock solution conserved at −20° C. The syringe was prepared by aspiration of 50 μl of peptide work solution prepared just before use at 10^−7 M (other concentrations are tested) in NaCl 0.9% and kept on ice until use.
The study was performed on male Duncan-Hartley guinea pigs (Harlan), whose particularity is to be affected with age of spontaneous and progressive degeneration of the knee that closely resembles knee osteoarthritis (OA) in humans. Seven 5-month-old animals (weighing 879 g.+/−58.1) were injected per group. Animals were treated in accordance with institutional animal care guidelines. Animals were anesthetized with an anesthesia module (Minerva) with a rapid induction device (4% isoflurane) and anesthesia was maintained using a specific device mask in guinea coaxial (2.5% isoflurane). 50 μl of the peptide of the invention or control—salt solution or Hyalgan® (10 mg/ml solution of MW 500-730 kDa hyaluronic—Laboratoire Expanscience, available in the market)—were injected on each hind legs of the animal into the joint space from the lateral side using a 29 G needle. This was followed by passive knee joint movements to facilitate the intra-articular distribution of the solution.
Five month after injection, the two knee joints from each animal were fixed for 36 to 48 hours in 10% buffered formalin then kept in 70% ethanol and followed by decalcification in 15% EDTA in phosphate buffer. Paraffin sections (3-4 μm) of the central region of the joint were stained with haematoxylin and eosin for histological analyses of cartilage structure, namely: loss of cartilage matrix, cellular abnormalities, appearance of articular cartilage mineralization front, formation of osteophytes and synovial membrane (microscopy: Nikon 80i). A semi-quantitative modified Mankin histological grading system was used to evaluate OA severity (Kraus et al., The OARSI histopathology initiative recommendations for histological assessments of osteoarthritis in the Guinea Pig. Osteoarthritis Cartilage, 2010 (18 S3) S35-S52). The articular cartilage area was analyzed quantitatively by immunohistochemistry (Pastoureau et al., Cartilage, bone and synovial histomorphometry in animal models of osteoarthritis. Osteoarthritis Cartilage. 2010 October; 18 Suppl 3:S106-12). Sections of guinea pig knees were stained with monoclonal antibody (monoclonal anti-chicken mouse collagen II, 6B3 clone—reference MAB887/250, Millipore). The measurement of the total area of articular cartilage was performed with Color deconvolution H DAB and Siox and the measurement of joint height by ImageJ (“Fit Ellipse” module). Statistical analyzes of scoring and quantification results were performed using a Kruskal-Wallis test followed by Dunn's test using PRISM software.

[2] = Raman scattering measurements of peptide conformation (stability of the peptide); format: physicochemical; conditions: in water, peptide 0.9 mM, with or without HA 1%
Experimental: Peptide alone, at a concentration of 0.9 mM (2.5 mg/ml), was dissolved in a Millipore filter treated water. Peptide+HA solution consists of peptide dissolved at 0.9 mM in a solution of HA (1.8 MDa) at 1% (10 mg/ml) in water.
Samples were placed in a suprasil quartz cell (5 mm path length) and excited by the 488 nm line of an Ar+ laser (Spectra Physics, CA, USA) with a ˜200 mW power at the sample. Scattered light at right angle was analyzed on a Jobin-Yvon T64000 (HORIBA Jobin-Yvon, France) in a single spectrograph configuration with a 1200 grooves per mm holographic grating and a holographic notch filter. Stokes Raman data were collected by means of a liquid nitrogen cooled CCD detection system (Spectrum One, Jobin-Yvon, France). The effective spectral slit width was set to ˜5 cm^−1. Each recorded spectrum corresponds to a total acquisition time of 1200 s. Buffer subtraction and smoothing of the observed Raman spectra could be performed using the GRAMS/AI package (Thermoage Galactic, MA, USA). The final presentation of these spectra was performed by means of SigmaPlot package (Systat Software Inc., CA, USA).

[3] = listed as peptide of the invention
[4] = five month after intra-articular injection, medial tibial surface of the knee, compared with sham (and HA)

GTSDRVYEKLAGSKNFFWKTFTSS [SEQ ID NO: 4]
cartilage thickness [1]: increased cartilage thickness
cartilage thickness [1, 3]: increase in the thickness of the cartilage
sum of the scores representing the degradation of several structures in the joint (total scoring of degradation parameters) [1]: significantly decreased degradation of cartilage structure
sum of the scores representing the degradation of several structures in the joint (total scoring of degradation parameters) [1, 3]: lowest
osteophytes scoring ([1]; five month after intra-articular injection, ** p<0.001): decreased osteophytes scoring
type II Collagen content (staining) ([1]; five month after intra-articular injection, immunohistochemistry, compared with sham (and HA)): greater synthesis of type II collagen
cartilage structure scoring (cartilage structural damage) [1, 4]: lowest severity
proteoglycan content (proteoglycan loss) [1, 4]: lowest severity
secondary conformation / structure stability by Raman spectra [2]: unstable structure in water
secondary conformation / structure stability by Raman spectra ([2]; listed as peptide alone): Several (4) secondary conformations and 4 major bands
